Drawing on PubChem BioAssay AID588652 (The Scripps Research Institute Molecular Screening Center, 2011), this text covers inhibition for 1 molecule.

SMILES strings stand for the structures.

The experiment deals with Krueppel-like factor 5 (Homo sapiens) (UniProt Q13887). The experiment can be described thus: KLF5 protein abundance by immunoblot – western blot, chemiluminescence, HCT116 colorectal cells, counter-screen for KLF5 inhibitor project, late-stage follow-up (AID 588652). As to conditions: HCT116 KLF5 protein level, 24 h, at 10 µM, hits give high values.
Chain of Krueppel-like factor 5 (Homo sapiens) (Q13887 whole entry, looked up): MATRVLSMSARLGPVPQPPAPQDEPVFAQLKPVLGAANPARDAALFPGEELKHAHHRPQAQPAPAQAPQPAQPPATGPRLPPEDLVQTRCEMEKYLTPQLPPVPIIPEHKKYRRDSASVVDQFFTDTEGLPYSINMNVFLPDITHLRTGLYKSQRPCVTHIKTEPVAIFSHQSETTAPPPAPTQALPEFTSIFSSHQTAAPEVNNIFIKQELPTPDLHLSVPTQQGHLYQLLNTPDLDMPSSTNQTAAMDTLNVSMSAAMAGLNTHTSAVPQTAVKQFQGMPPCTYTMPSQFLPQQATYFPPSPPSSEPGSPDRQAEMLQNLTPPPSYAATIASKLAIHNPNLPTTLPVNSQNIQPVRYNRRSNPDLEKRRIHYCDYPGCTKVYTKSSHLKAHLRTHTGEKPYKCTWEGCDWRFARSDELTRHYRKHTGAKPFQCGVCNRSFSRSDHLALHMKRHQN

For the molecule `CN(C(=O)COC(=O)/C=C/c1cccc([N+](=O)[O-])c1)C1CCS(=O)(=O)C1` (stereo unspecified), the inhibition (as a rule, the percentage by which the read-out fell short of the control) was 62.6%.
